Reference: publication PMC7269481, “ZN148 Is a Modular Synthetic Metallo-β-Lactamase Inhibitor That Reverses Carbapenem Resistance in Gram-Negative Pathogens In Vivo” (Antimicrobial Agents and Chemotherapy, 2020)
Entries after “also recorded” stand apart in the source; their conditions may differ.

Legend:
[1] = test system: Other Enterobacterales with MBLs (n=10); assay: Meropenem MIC distribution, other Enterobacterales with MBLs; format: cell-based; conditions: MEM alone or +50 µM ZN148
Method: (§1) MICs of carbapenems alone and in combination with inhibitors were determined by broth microdilution according to the Clinical and Laboratory Standards Institute (CLSI) guidelines ([48]) using either premade plates (TREK Diagnostic Systems/Thermo Fisher Scientific, East Grinstead, United Kingdom) with meropenem or in-house-prepared plates with meropenem, imipenem, and doripenem. ZN148 and other inhibitors were tested at a fixed concentration of 50 μM. Cation-adjusted Mueller-Hinton medium (TREK Diagnostic Systems/Thermo Fisher Scientific; Becton Dickinson, Franklin Lakes, NJ) were used as growth medium. The plates were incubated for 20 h at 37°C. ZN148, ZN222, ZN223, ZN228, and TPA were initially tested in combination with meropenem using two indicator strains: NDM-1-producing K. pneumoniae ([49], [50]) and VIM-2-producing P. aeruginosa ([51]). The activity of ZN148 were subsequently tested against two extended strain collections: (i) in combination with meropenem against MBL-producing Enterobacterales (n = 62), MBL-producing P. aeruginosa (n = 9) and MBL- and class D carbapenemase-coproducing Enterobacterales (n = 5) from the strain collection at the Norwegian National Advisory Unit on Detection of Antimicrobial Resistance and (ii) in combination with meropenem, imipenem, and doripenem against globally collected MBL-producing E. coli (n = 87), K. pneumoniae (n = 85), P. aeruginosa (n = 52), and A. baumannii (n = 6), MBL- and class A/D carbapenemase-coproducing E. coli (n = 11), K. pneumoniae (n = 15) and A. baumannii (n = 7) at IHMA Europe, Sàrl, Switzerland. E. coli ATCC 25922 and P. aeruginosa ATCC 27853 were used as quality control strains. The MBL inhibitors were also tested for intrinsic antibacterial activity against the strains.

[2] = test system: E. coli co-producing MBLs and class A/D serine carbapenemases; assay: Carbapenem MIC, E. coli co-producing MBLs and class A/D serine carbapenemases; format: cell-based; conditions: carbapenem alone or with 50µM ZN148
Method: as §1

[3] = test system: female BALB/c mice; assay: In vivo tolerance (maximum tolerated dose study); conditions: weekly i.p. doses 4 to 128 mg/kg
Method: In vivo tolerance of ZN148 was performed by Antineo (Lyon, France). Female BALB/c mice (4 weeks old, approximately 20 g; Charles River, L’Arbresle, France) were acclimatized 4 days in the animal facility before the initiation of experiments. Groups of six mice were either untreated or treated with 200 μl of ZN148 (0.4 to 12.8 g/liter) i.p. once a week. Doses were doubled each week (4 to 128 mg/kg) in the absence of any observed weight loss or modification in behavior. Individual weights were monitored 4 days a week. The relative weights were calculated as ratios between the weight of the day and the weight at the initiation of the experiment. Animals were also followed for macroscopic modifications in behavior. The protocol for experiments in mice was approved by the University of Lyon Animal Ethics Committee (Comité d’Ethique en Expérimentation Animale de l’Université Claude Bernard [Lyon, France], authorization number DR2015-09).

[4] = test system: NDM-1-producing K. pneumoniae 50752501; assay: Murine neutropenic peritonitis model; format: in vivo, mice
Method: The in vivo efficacy of meropenem (Mylan; Mylan Hospitals, Asker, Norway) in combination with ZN148 were evaluated in a murine neutropenic peritonitis model. Female NRMI mice (Taconic Biosciences, Lille Skensved, Denmark) were rendered neutropenic by intraperitoneal (i.p.) injection with cyclophosphamide (Baxter, Søborg, Denmark) at 4 days (200 mg/kg) and 1 day (100 mg/kg) prior to inoculation. Mice were inoculated i.p. with ∼5 × 10^6 CFU of NDM-1-producing K. pneumoniae 50752501. At 1 h postinoculation, the mice were injected subcutaneously (s.c.) in the neck region with ZN148 corresponding to 10, 33, or 100 mg/kg or vehicle. After 30 min, the mice were injected s.c. with 33 mg/kg meropenem or vehicle. Four mice were included for each treatment regime. At 5 h postinoculation, the mice were anesthetized. Blood was collected from axillary cutdown, and the mice were sacrificed. Subsequently, 2 ml of sterile saline was injected i.p., and the intraperitoneal fluid was sampled. Blood and intraperitoneal fluid were serially diluted in 0.9% NaCl and plated on blood agar plates with 5% horse blood (Statens Serum Institut, Copenhagen, Denmark) for CFU determination. Groups were analyzed with analysis of variance (ANOVA) Dunnett’s multiple-comparison test in Prism 7.04 (GraphPad Software, Inc.). P values of <0.05 were considered statistically significant. All animal experiments were approved by the National Committee of Animal Ethics, Denmark (permission 2014-15-0201-00171), and adhered to the standards of EU Directive 2010/63/EU.

[5] = target: T1, VIM-2 (Escherichia coli, UniProt Q5U7L7); assay: LC-ESI-MS of VIM-2 incubated with inhibitor; conditions: VIM-2 preincubated with 5 mM ZN148
T1 construct: made in house
Method: VIM-2 (8 μM final concentration) was incubated together without or with 5 mM ZN148 on ice for 30 min. Incubation was carried out in Chelex HEPES buffer (pH 7.5), and the inhibitors were diluted in Milli-Q water (Millipore/Merck) by a factor of 1,000,000 using centrifugal filters (10,000 Da; Merck). Liquid chromatography electrospray ionization Q-TOF mass spectrometry (LC-ESI-MS; Agilent Technologies, Santa Clara, CA) was performed in positive-ion mode using 0.1% formic acid in Milli-Q water and acetonitrile (VWR, Radnor, PA) at 0.4 ml/min. Spectra deconvolution was performed by using BioConfirm and MassHunter qualitative analysis (Agilent Technologies).

[6] = test system: the strains (MBL-producing Gram-negative clinical strains); assay: Intrinsic antibacterial activity of the inhibitor; format: cell-based; conditions: concentrations up to 500 μM
Method: MICs of carbapenems alone and in combination with inhibitors were determined by broth microdilution according to the Clinical and Laboratory Standards Institute (CLSI) guidelines ([48]) using either premade plates (TREK Diagnostic Systems/Thermo Fisher Scientific, East Grinstead, United Kingdom) with meropenem or in-house-prepared plates with meropenem, imipenem, and doripenem. ZN148 and other inhibitors were tested at a fixed concentration of 50 μM. Cation-adjusted Mueller-Hinton medium (TREK Diagnostic Systems/Thermo Fisher Scientific; Becton Dickinson, Franklin Lakes, NJ) were used as growth medium. The plates were incubated for 20 h at 37°C. ZN148, ZN222, ZN223, ZN228, and TPA were initially tested in combination with meropenem using two indicator strains: NDM-1-producing K. pneumoniae ([49], [50]) and VIM-2-producing P. aeruginosa ([51]). […]

[7] = target: T2, recombinant human glyoxylase II (Homo sapiens, UniProt Q16775); assay: Interaction with human glyoxylase II; format: biochemical; conditions: 500 μM
T2 construct: purchased R&D Systems
Method: Recombinant human glyoxylase II (rHGly II; R&D Systems) was incubated with or without ZN148 (final concentrations of 125, 250, and 500 μM) for 10 and 30 min at 25°C in 50 mM Tris buffer (Merck) supplemented with 250 mM NaCl (pH 7.5). Then, 50 μl of substrate mixture containing 2 mM S-lactoylglutathione and 400 μM 5,5′-dithiobis(2-nitrobenzoic acid) (Sigma-Aldrich) was mixed with 50 μl of the preincubated rHGly II at a final enzyme concentration of 0.2 ng/μl. The initial enzymatic velocity was measured at 405 nm in 96-well plates (Thermo Fisher Scientific, Roskilde, Denmark) at 25°C in a SpectraMax Plus plate reader (Molecular Devices). EDTA (Merck) was included as a control.

With `C[C@@H](O)[C@H]1C(=O)N2C(C(=O)O)=C(S[C@@H]3CN[C@H](C(=O)N(C)C)C3)[C@H](C)[C@H]12` [meropenem] the “No. of strains with indicated MIC” value ([1]; MIC 4 mg/L) was 1, the “No. of strains with indicated MIC” value ([1]; MIC 8 mg/L) was 2 and the “No. of strains with indicated MIC” value ([1]; MIC 16 mg/L) was 3. The “No. of strains with indicated MIC” value ([1]; MIC 32 mg/L) was 2, the “No. of strains with indicated MIC” value ([1]; MIC ≥64 mg/L) was 2 and the MIC ([2]; NDM-1 + GES-2 strain) was over 64 mg/L. The MIC ([2]; NDM-5 + OXA-48 strain) was over 64 mg/L and the MIC ([2]; NDM-5 + OXA-232 strains, one value per strain) was over 64 mg/L.

`CN(C[C@H](O)[C@@H](O)[C@H](O)[C@H](O)CO)C(=O)c1ccc(CN(Cc2ccccn2)Cc2ccccn2)nc1` [ZN148] was tested, and the “clinical signs (hair loss or bristly hair, immobility, prostration) test vs control groups” value [3] was “no significant differences”, the “loss of weight compared to initial weight” value [3] was under 10% and the “CFU with ZN148 alone compared to vehicle” value ([4]; ZN148 alone, s.c.) was “did not result in a reduction in CFU”. The “CFU/ml with meropenem + higher ZN148 doses compared to meropenem alone” value ([4]; meropenem 33 mg/kg + 33 and 100 mg/kg ZN148 s.c.) was “same effect”, the “CFU/ml in peritoneal fluid compared to meropenem alone” value ([4]; s.c. meropenem 33 mg/kg + ZN148 10 mg/kg, 5 h postinoculation, P < 0.0001) was “significantly lower CFU/ml” and the “CFU/ml in blood compared to meropenem alone” value ([4]; s.c. meropenem 33 mg/kg + ZN148 10 mg/kg, 5 h postinoculation, P < 0.01) was “significantly lower CFU/ml”. The “change in mass of VIM-2” value [5] was 46.2 ± 0.1 Da, the intrinsic antibacterial activity [6] was “no intrinsic antibacterial activity” and the “inhibitory activity against recombinant human glyoxylase II” value [7] was “no inhibition; also recorded: no inhibitory activity”.
